Data as given in patent US20250213558A1, “T-TYPE CALCIUM CHANNEL MODULATORS COMPRISING A PIPERAZINE OR 1,4-DIAZEPANE CORE AND METHODS OF USE THEREOF” (Praxis Precision Medicines, Inc., priority 2022, published 2025).
Like-named read-outs stand apart in the source and are kept apart here.

Target: T1, Human Cav3.1 calcium channel (Homo sapiens, UniProt O43497)
T1 construct: expressed in transfected cells; host or cells: HEK-293 natClytin/TASK1+Cav3.1 cell line
Test: Human Cav3.1 calcium channel patch clamp assay (SyncroPatch 384PE; single point and IC50, voltage dependent block)
Format: cell-based
Conditions: for % Inhibition (Single Point Data): patch clamp
Summary of the method: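 Automated whole-cell patch clamp at room temperature, cells held at −120 mV; 100 ms step to −20 mV (resting block), then 1600 ms at −65 mV and a second −20 mV step (voltage-dependent block), every 15 s. Peak currents averaged over last 3 sweeps; % inhibition relative to nickel-sensitive current.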

[1] = Testing Conc 1.25, HEK-293 natClytin/TASK1+Cav3.1 cell line
[2] = voltage dependent block (VDB), HEK-293 natClytin/TASK1+Cav3.1 cell line, read-out: Cav3.1 IC50
[3] = Testing Conc 1, HEK-293 natClytin/TASK1+Cav3.1 cell line

T1 sequence (O43497 whole entry): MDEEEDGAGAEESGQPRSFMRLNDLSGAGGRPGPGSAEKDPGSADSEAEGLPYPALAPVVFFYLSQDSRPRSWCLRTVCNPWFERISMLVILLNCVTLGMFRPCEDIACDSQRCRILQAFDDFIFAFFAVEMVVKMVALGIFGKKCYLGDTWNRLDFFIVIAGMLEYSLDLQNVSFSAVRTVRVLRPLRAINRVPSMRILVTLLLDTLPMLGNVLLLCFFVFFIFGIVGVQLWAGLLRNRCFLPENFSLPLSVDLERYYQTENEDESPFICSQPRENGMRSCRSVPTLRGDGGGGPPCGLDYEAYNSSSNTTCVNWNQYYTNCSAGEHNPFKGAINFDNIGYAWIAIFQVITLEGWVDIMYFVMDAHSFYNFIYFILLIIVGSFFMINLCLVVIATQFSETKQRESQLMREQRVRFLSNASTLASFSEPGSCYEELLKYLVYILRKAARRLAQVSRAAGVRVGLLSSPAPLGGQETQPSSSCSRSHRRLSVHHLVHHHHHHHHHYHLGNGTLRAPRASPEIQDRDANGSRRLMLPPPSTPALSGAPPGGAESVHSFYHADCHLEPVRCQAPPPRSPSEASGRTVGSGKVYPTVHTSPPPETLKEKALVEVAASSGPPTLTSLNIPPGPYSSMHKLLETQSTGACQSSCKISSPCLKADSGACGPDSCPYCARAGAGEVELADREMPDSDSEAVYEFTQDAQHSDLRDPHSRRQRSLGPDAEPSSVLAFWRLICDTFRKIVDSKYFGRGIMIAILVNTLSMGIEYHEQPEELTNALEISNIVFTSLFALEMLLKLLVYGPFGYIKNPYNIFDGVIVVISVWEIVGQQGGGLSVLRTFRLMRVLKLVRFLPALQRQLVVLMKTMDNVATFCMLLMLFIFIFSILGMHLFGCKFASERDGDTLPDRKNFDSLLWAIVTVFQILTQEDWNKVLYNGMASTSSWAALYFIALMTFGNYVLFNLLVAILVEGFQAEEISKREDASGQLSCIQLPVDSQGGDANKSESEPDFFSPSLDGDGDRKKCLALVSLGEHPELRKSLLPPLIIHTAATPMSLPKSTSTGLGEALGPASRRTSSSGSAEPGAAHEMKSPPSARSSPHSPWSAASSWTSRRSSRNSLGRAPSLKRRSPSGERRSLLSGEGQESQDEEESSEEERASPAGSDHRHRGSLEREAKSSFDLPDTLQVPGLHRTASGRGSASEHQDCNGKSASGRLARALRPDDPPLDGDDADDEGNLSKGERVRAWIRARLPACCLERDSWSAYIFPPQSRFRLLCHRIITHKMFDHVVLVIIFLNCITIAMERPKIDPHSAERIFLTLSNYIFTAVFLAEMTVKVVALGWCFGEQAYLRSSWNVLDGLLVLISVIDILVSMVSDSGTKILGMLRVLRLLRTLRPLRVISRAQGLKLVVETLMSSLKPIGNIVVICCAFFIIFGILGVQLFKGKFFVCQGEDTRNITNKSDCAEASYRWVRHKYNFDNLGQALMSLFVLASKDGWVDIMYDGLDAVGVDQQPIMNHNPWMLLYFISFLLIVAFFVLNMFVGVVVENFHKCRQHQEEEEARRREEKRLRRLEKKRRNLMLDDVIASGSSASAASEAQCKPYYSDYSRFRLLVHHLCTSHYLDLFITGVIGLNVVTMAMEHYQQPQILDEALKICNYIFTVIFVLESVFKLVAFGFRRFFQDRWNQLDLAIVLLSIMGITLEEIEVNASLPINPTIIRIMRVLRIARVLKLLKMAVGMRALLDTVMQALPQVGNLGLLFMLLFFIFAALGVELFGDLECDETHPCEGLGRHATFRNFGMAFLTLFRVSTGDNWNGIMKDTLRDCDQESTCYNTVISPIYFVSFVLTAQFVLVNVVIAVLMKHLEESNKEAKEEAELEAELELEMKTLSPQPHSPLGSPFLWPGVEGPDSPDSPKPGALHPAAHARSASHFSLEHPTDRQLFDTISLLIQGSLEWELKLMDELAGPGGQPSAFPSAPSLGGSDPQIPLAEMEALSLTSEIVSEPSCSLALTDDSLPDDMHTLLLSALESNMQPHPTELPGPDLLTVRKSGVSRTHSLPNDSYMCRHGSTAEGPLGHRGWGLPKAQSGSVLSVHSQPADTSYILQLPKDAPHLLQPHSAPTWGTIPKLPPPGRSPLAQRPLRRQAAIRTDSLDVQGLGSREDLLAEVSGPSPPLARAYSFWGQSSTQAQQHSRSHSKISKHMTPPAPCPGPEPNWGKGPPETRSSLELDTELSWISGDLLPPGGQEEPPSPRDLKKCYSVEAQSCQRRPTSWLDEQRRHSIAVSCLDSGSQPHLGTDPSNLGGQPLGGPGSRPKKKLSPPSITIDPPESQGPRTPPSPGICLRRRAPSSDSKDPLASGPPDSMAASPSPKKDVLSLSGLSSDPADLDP

| SMILES | % Inhibition (Single Point Data) [1] | IC50 [2] | IC50 | % Inhibition (Single Point Data) [3] |
| --- | --- | --- | --- | --- |
| CC1(C)CCN1C(=O)CN1C2CC1CN(Cc1nc3c(Cl)cc(F)cc3[nH]1)C2 [Compound 94] | 89.896% | 249 nM |  |  |
| O=C(CN1C[C@@H]2C[C@H]1CN2CC(=O)NC1(C(F)(F)F)COC1)NC12CC3CC(CC(C3)C1)C2 [Compound 319] | 23.628% | 2080 nM |  |  |
| CC1(C(=O)OCCN2C3CC2CN(Cc2nc4c(Cl)cc(F)cc4[nH]2)C3)CC1 [Compound 143] | 78.298% | 174 nM |  |  |
| CC(C)(C)NC(=O)CN1C[C@@H]2C[C@H]1CN2CC(=O)Nc1ccc(Cl)c(OC(F)F)c1 [Compound 357] |  | 82 nM |  |  |
| CC(C)(C)NC(=O)CN1C[C@H]2CC[C@@H]1CN2CC(=O)Nc1ccc(F)c(Cl)c1 [Compound 269] | 62.186% | 888 nM |  |  |
| CC(C)Cc1cc(CNC(=O)CN2CCN(CC(=O)NC(C)(C)C)CC2)nn1-c1ccccc1 [Compound 1, 2-[4-[2-(tert-butylamino)-2-oxo-ethyl]piperazin-1-yl]-N-[(5-isobutyl-1-phenyl-pyrazol-3-yl)methyl]acetamide] | 27.978% | 2240 nM |  |  |
| O=C(CN1CC2CC1CN2CCNC(=O)C1(C(F)(F)F)CCC1)Nc1ccc(F)c(Cl)c1 (stereo not drawn) [Compound 19] | 84.472% | 251 nM |  |  |
| O=C(CN1C2CC1CN(Cc1nc3c(Cl)cc(F)cc3[nH]1)C2)OC1CCCC1 [Compound 141] | 100.15% | 162 nM |  |  |
| CC(C)(C)NC(=O)CN1C2CC1CN(CC(=O)Nc1ccc(F)c(OC(F)F)c1)C2 [Compound 244] | 90.346% | 179 nM |  |  |
| O=C(CN1CC2CC(C1)N2CC(=O)NC1(C(F)(F)F)CC1)Nc1cc(F)cc(Cl)c1 [Compound 170] | 96.908% |  |  |  |
| Cc1cc(F)cc2[nH]c(CN3CC4CCC(C3)N4CC(=O)NC(C)(C)C)nc12 [Compound 190] | 94.944% | 210 nM |  |  |
| CC(C)(C)NC(=O)CN1C2CCC1CN(Cc1nc3ccccc3[nH]1)C2 [Compound 188] | 75.55% | 485 nM |  |  |
| CN(CCN1C2CC1CN(Cc1nc3c(Cl)cc(F)cc3[nH]1)C2)C(=O)C1(C)CC1 [Compound 145] | 83.5% |  |  |  |
| O=C(CN1CC2CC1CN2CC(=O)NC1(C(F)(F)F)CC1)Nc1cc(F)cc(Cl)c1 (stereo not drawn) [Compound 223] | 75.83% | 1250 nM |  |  |
| CC(C)(C)NC(=O)CN1C[C@@H]2C[C@H]1CN2CC(=O)NC12CC3CC(CC(Cl)(C3)C1)C2 [Compound 344] | 79.298% | 417 nM |  |  |
| CC(C)(C)NC(=O)CN1C[C@H]2C[C@@H]1CN2CC(=O)Nc1cc(F)cc(Cl)c1 [Compound 59] | 49.275% | 925 nM |  |  |
| CC(C)(C)NC(=O)CN1C2CCC1CN(CC(=O)NCc1cc3ccccc3o1)C2 [Compound 5] | 22.469% |  |  |  |
| CC(C)(C)NC(=O)CN1C[C@@H]2C[C@H]1CN2CC(=O)NC12CC3CC(CC(O)(C3)C1)C2 [Compound 312] | 4.6566% |  |  |  |
| Cc1cccc2[nH]c(CN3CC4CCC(C3)N4CC(=O)NC(C)(C)C)nc12 [Compound 194] | 97.438% |  |  |  |
| Fc1cc(Cl)c2nc(CN3CC4CC(C3)N4CCOC3CCOCC3)[nH]c2c1 [Compound 146] | 41.657% | 1280 nM |  |  |
| O=C(NCCN1C2CC1CN(Cc1nc3c(Cl)cc(F)cc3[nH]1)C2)C1(C(F)(F)F)CCC1 [Compound 138] | 98.457% |  |  |  |
| O=C(CN1CC2CC1CN2CCNC(=O)C1(C(F)(F)F)CC1)Nc1ccc(F)c(Cl)c1 (stereo not drawn) [Compound 18] | 83.021% | 337 nM |  |  |
| CC(C)(C)NC(=O)CN1C[C@H]2COC[C@@H](C1)[C@H]2CNC(=O)c1cc(F)cc(Cl)c1 [Compound 370] |  | 1740 nM |  |  |
| CC(C)(C)NC(=O)CN1CC2CCC1CCN2Cc1nc2c(Cl)cc(F)cc2[nH]1 (stereo not drawn) [Compound 74] | 72.584% | 575 nM |  |  |
| CC(C)(C)NC(=O)CN1C2CC1CN(Cc1nc3c(Cl)cc(F)cc3[nH]1)C2 [Compound 62, N-(tert-butyl)-2-(3-((4-chloro-6-fluoro-1H-benzo[d]imidazol-2-yl)methyl)-3,6-diazabicyclo[3.1.1]heptan-6-yl)acetamide] | 102.05% |  | < 78.2 nM |  |

| SMILES | % Inhibition (Single Point Data) [1] | IC50 [2] | IC50 | % Inhibition (Single Point Data) [3] |
| --- | --- | --- | --- | --- |
| CC(C)(NC(=O)CN1C2CCC1CN(Cc1nc3c(Cl)cc(F)cc3[nH]1)C2)C(F)(F)F [Compound 76] | 100.39% |  |  |  |
| Cc1ccc(Cl)c2nc(CN3CC4CC(C3)N4CC(=O)NC(C)(C)C)[nH]c12 [Compound 217] | 100.76% |  |  |  |
| COc1cc(F)cc2[nH]c(CN3CC4CC(C3)N4CCC3CCC(F)(F)CC3)nc12 [Compound 158] | 92.557% | 148 nM |  |  |
| CC1(C(=O)NCCN2C3CC2CN(Cc2nc4c(Cl)cc(F)cc4[nH]2)C3)CC1 [Compound 121] | 96.032% | 254 nM |  |  |
| CC(C)(C)NC(=O)CN1C2CCC1CN(Cc1nc3c(Cl)ccc(F)c3[nH]1)C2 [Compound 185, N-tert-butyl-2-[3-[(4-chloro-7-fluoro-1H-benzimidazol-2-yl)methyl]-3,8-diazabicyclo[3.2.1]octan-8-yl]acetamide] | 99.412% |  | < 78.2 nM |  |
| CC(C)(C)NC(=O)CN1CCN(CC(=O)Nc2cc(F)cc(Cl)c2)C2(COC2)C1 [Compound 44] | 50% | 1210 nM |  |  |
| COc1cc(F)cc(NC(=O)CN2C[C@@H]3C[C@H]2CN3CC(=O)NC2(C(F)(F)F)CC2)c1 [Compound 320] | 87.599% | 185 nM |  |  |
| CC(C)Cc1cc(CNC(=O)CN2CC3CC(C2)N3CC(=O)NC(C)(C)C)nn1-c1ccccc1 [Compound 301] | 19.445% | 3240 nM |  |  |
| CC(C)(C)NC(=O)CN1CCC(CNc2nccc3c(F)cc(Cl)cc23)CC1 [Compound 123] | 96.398% | 243 nM |  |  |
| Cc1cc(F)cc(NC(=O)CN2C[C@@H]3C[C@H]2CN3CC(=O)NC(C)(C)C)c1 [Compound 276] | 71.467% | 474 nM |  |  |
| CC(C)(C)NC(=O)CN1C2CC1CN(CC(=O)Nc1cc(Cl)ccc1F)C2 [Compound 14] | 39.34% | 1710 nM |  |  |
| CC(C)(C)NC(=O)CN1C[C@@H]2C[C@H]1CN2CCNc1nccc2ccc(Cl)cc12 [Compound 60] | 60.189% | 605 nM |  |  |
| Cc1cc(Cl)cc(NC(=O)CN2C[C@@H]3C[C@H]2CN3CC(=O)NC(C)(C)C)c1 [Compound 283] | 94.657% | 140 nM |  |  |
| Cc1cc(CNC(=O)CN2CC3CC(C2)N3CC(=O)NC(C)(C)C)nn1-c1ccccc1 [Compound 273] | 6.1482% |  |  |  |
| CC(C)(C)NC(=O)CN1CC2CC1CN2CC(=O)Nc1cccc(C(F)F)c1 (stereo not drawn) [Compound 13] | 64.618% | 490 nM |  |  |
| COc1cc(NC(=O)CN2C[C@@H]3C[C@H]2CN3CC(=O)NC(C)(C)C)ccc1Cl [Compound 337] | 95.366% | < 78.2 nM |  |  |
| COc1cc(NC(=O)CN2CC3CC(C2)N3CC(=O)NC(C)(C)C)ccc1Cl [Compound 331] | 102.24% |  |  |  |
| Cc1ccc(F)c2[nH]c(CN3CC4CC(C3)N4CC(=O)NC(C)(C)C)nc12 [Compound 207] | 97.657% | 121 nM |  |  |
| CC(C)(C)NC(=O)CN1CCCN(CC(=O)NC23CC4CC(CC(C4)C2)C3)CC1 [Compound 32] |  |  |  | 56.921% |
| O=C(CN1C[C@@H]2C[C@H]1CN2CC(=O)NC1(C(F)(F)F)CC1)Nc1ccc(F)c(OC(F)F)c1 [Compound 330] | 96.893% |  |  |  |
| O[C@H]1CC[C@@H](OCCN2C3CC2CN(Cc2nc4c(Cl)cc(F)cc4[nH]2)C3)CC1 [Compound 132] | 6.2687% | 5900 nM |  |  |
| CC(C)(NC(=O)CN1C2CC1CN(CC(=O)Nc1cc(F)cc(Cl)c1)C2)C(F)(F)F [Compound 129] | 89.48% | 222 nM |  |  |
| CC1(C)CC(CN2C[C@@H]3C[C@H]2CN3CC(=O)NC23CC4CC(CC(C4)C2)C3)CCO1 (stereo partly drawn) [Compound 298] | 26.791% | 2080 nM |  |  |
| COCC1CN(CC(=O)NC(C)(C)C)CCN1CC(=O)Nc1cc(F)cc(Cl)c1 (stereo not drawn) [Compound 42] |  | 627 nM |  | 62.5% |
